The text below walks through data of patent US20260327204A1, “DEGRADERS OF CYCLIN-DEPENDENT KINASE 12/13, COMPOSITIONS, AND USES THEREOF” (ZHEJIANG UNIVERSITY, priority 2023, published 2026).

Structures are written as SMILES. Like-named read-outs stand apart in the source and are kept apart here.

In one data set the target is CDK12 (Homo sapiens, UniProt Q9NYV4). Briefly: Western blot degradation of CDK12 (Example 2). Set-up: degradation of CDK12/13 protein in leukemia cells KASUMI-1, MV4-11, and Jurkat; endogenous in cells. The data set is classed as cell-based. The method in brief: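 Leukemia lines KASUMI-1, MV4-11, Jurkat, plus MDA-MB-231 for a concentration series, treated at 0.01–3 μM for 3–48 h at 37 °C against DMSO control. Lysates in 4% SDS; CDK12/13 band intensity normalized to β-Actin or GAPDH to give degradation rate.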
For orientation: A western blot detects proteins with antibodies after separation by electrophoresis.

Data set [1] can be described thus: Liver microsome stability, monkey. The class given is in vitro ADME. Particulars: liver microsomes. The protocol:
(§1) • Compounds: Ketanserin, Formula 18, Formula 45 • Liver microsomes: Human liver microsomes (purchased from BioreclamationIVT); Dog, mouse, rat, and monkey liver microsomes (purchased from Xenotech)
(§2) Preparation of 500 μM compound solution: Add 5 μL of 10 mM compound solution and 95 μL of DMSO to an EP tube.
(§3) Preparation of solution containing 0.75 mg/mL liver microsomes and 1.5 μM compound: Add 1.5 μL of the 500 μM compound solution, 18.75 μL of the 20 mg/mL liver microsome solution, and 479.75 μL of PBS to an EP tube.
(§4) Preparation of 6 mM NADPH solution: Dissolve 5 mg of NADPH in 1 mL of PBS solution.
(§5) Add 30 μL of the solution containing 0.75 mg/mL liver microsomes and a concentration gradient of the compound to a 96-well plate. Add 15 μL of the 6 mM NADPH solution and 150 μL of a 1:1 acetonitrile:methanol solution containing an internal standard (IS). Vortex and centrifuge at 6,000 rpm for 10 min. 80 μL of the supernatant from each concentration sample is transferred to a 96-well plate containing 140 μL of pure water for LC/MS detection (injection volume of […]). […]
(§6) 80 μL of the supernatant from each well is transferred to a 96-well plate containing 140 μL of pure water for LC/MS detection (injection volume of […]). The compound concentration value is determined by comparing the corresponding mass spectrometry peak area with the standard curve. […]

Data set [2] is described as follows: Liver microsome stability, rat. The data set is classed as in vitro ADME. Particulars: liver microsomes. On the procedure:
as §1, §2, §3, §4, §5, §6
On the technique in general: Microsomes from liver hold many membrane-bound enzymes, among them those of drug oxidation.

The nature of data set [3]: Liver microsome stability, dog. The data set is classed as in vitro ADME. Particulars: liver microsomes. On the procedure:
as §1, §2, §3, §4, §5, §6

Data set [4] can be described thus: Liver microsome stability, human. The class given is in vitro ADME. The settings on record: liver microsomes. On the procedure: as §1, §2, §3, §4, §5, §6
Data set [5] deals with T1, CDK13 (Homo sapiens, UniProt Q14004). As to the kind of experiment: Western blot degradation of CDK13 (Example 2). The data set is classed as cell-based. Set-up: degradation of CDK12/13 protein in leukemia cells KASUMI-1, MV4-11, and Jurkat; endogenous in cells.
Data set [6] has as its target T1, CDK13. Briefly: Western blot degradation of CDK13 (Example 2). The class given is cell-based. On the set-up: degradation of CDK12/13 protein in leukemia cells KASUMI-1, MV4-11, and Jurkat; endogenous in cells. Particulars: HCT116, colorectal cancer cells.

As usually defined, the half-life is the time needed for the level to fall by half in the phase considered.

T1 sequence (Q14004 whole entry): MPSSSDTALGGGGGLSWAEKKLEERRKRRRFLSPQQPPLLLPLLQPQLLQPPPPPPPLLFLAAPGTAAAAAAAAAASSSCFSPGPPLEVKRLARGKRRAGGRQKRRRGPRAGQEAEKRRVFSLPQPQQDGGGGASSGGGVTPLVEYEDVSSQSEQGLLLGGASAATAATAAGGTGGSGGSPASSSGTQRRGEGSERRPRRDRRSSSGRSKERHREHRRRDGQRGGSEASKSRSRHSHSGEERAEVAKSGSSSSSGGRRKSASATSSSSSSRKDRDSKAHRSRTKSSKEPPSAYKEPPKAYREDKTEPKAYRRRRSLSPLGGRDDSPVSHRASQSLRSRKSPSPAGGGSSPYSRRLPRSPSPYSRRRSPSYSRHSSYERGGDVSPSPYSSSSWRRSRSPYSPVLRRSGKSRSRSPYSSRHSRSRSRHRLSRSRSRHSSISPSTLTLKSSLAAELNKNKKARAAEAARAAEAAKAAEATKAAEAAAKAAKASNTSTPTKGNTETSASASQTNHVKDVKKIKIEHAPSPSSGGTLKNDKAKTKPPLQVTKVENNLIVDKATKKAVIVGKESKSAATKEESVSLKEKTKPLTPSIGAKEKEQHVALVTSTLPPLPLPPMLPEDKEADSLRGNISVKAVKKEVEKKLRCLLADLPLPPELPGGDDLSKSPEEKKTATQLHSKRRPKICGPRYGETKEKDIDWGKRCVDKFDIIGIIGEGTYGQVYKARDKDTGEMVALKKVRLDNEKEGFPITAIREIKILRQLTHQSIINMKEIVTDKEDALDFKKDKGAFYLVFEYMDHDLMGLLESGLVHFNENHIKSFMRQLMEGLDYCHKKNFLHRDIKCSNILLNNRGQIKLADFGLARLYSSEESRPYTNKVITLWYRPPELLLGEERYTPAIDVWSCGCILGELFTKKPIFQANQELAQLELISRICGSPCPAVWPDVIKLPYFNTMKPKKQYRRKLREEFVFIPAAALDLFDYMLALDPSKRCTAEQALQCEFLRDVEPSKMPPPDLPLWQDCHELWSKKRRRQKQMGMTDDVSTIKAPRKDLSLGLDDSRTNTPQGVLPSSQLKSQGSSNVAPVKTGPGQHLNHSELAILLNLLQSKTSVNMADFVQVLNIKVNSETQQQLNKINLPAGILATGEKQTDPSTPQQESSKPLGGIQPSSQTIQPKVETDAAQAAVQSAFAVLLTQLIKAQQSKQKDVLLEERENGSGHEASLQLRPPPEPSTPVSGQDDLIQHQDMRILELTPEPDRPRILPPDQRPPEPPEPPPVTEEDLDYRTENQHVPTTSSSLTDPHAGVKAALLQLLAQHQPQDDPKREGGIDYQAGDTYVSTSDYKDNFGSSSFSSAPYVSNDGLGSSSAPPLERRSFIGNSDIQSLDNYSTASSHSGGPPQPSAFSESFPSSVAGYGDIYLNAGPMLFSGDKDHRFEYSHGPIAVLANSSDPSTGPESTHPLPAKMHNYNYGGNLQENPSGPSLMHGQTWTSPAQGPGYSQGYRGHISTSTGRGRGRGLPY
T1 sequence (O75909 whole entry partner): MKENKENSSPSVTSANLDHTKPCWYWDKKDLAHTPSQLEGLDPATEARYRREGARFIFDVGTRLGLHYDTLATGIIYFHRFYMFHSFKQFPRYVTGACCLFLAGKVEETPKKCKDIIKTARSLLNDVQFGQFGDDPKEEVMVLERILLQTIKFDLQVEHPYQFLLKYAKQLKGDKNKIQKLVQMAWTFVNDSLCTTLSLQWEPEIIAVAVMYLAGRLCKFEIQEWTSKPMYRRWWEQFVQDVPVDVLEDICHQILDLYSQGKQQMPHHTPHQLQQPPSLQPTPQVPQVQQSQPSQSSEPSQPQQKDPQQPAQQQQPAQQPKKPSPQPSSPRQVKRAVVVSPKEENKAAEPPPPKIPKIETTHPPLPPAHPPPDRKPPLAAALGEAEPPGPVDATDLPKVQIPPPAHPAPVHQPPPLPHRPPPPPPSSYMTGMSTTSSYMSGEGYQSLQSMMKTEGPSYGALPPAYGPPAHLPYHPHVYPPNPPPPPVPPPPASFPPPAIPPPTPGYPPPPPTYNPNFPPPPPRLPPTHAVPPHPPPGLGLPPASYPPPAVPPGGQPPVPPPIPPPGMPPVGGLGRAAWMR
CDK12, sequence (Q9NYV4 whole entry): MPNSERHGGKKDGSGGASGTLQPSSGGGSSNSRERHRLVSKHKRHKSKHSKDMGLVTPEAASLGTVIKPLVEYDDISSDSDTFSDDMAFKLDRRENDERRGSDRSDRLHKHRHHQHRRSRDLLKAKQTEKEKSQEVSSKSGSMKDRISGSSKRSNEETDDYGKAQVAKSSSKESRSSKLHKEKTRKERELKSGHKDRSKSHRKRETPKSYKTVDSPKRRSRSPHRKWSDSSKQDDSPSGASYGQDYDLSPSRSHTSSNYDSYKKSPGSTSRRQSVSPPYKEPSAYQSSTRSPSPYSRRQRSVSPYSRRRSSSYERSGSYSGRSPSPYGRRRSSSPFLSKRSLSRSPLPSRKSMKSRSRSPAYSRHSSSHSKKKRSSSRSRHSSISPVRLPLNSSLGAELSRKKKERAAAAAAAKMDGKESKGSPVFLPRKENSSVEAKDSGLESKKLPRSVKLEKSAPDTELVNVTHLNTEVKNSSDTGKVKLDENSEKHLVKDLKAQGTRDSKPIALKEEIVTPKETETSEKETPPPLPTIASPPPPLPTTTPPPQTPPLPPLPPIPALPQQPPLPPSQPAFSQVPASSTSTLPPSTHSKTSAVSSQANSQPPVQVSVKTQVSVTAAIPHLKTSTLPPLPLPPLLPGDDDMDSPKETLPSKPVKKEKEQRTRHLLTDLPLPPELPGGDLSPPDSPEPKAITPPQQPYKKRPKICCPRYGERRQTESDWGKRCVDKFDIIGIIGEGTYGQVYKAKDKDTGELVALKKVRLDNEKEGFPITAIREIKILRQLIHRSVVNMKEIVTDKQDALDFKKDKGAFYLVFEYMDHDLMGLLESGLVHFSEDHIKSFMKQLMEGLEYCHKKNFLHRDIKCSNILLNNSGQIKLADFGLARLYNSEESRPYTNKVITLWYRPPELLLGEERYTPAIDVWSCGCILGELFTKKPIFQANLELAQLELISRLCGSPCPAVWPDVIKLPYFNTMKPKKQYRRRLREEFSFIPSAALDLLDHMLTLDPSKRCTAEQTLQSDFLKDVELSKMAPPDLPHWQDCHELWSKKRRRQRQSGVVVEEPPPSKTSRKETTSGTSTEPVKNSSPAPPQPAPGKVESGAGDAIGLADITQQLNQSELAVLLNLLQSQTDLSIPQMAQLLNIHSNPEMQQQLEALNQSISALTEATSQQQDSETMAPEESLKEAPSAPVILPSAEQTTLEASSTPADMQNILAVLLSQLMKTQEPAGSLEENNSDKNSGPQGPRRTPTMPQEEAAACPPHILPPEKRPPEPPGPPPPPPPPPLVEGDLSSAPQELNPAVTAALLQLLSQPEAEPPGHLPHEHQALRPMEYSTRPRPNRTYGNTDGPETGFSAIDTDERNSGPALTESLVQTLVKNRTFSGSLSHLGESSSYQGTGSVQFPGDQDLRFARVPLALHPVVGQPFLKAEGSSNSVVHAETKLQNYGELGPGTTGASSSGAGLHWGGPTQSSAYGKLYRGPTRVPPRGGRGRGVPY
CDK12, sequence (O75909 whole entry partner): as the sequence (O75909 whole entry partner) above

As to `Cc1ncsc1-c1ccc([C@H](C)NC(=O)[C@@H]2C[C@@H](O)CN2C(=O)[C@@H](NC(=O)CN2CCN(c3ncc(-c4ccc(N(C(=O)NCc5ccccc5)[C@H]5CC[C@H](Nc6ccc(C#N)cn6)CC5)cc4)cn3)CC2)C(C)(C)C)cc1` [Formula 45], the DC50 on CDK12 (DC50 classes, cell line not given, read-out: CDK12 degradation Activity) is less than 100 nM; at CDK12 (HCT116, colorectal cancer cells, read-out: CDK12 DC50), 34 nM; at CDK12 (KASUMI-1, leukemia cells, read-out: CDK12 DC50), 28 nM; on CDK12 (MDA-MB-231, breast cancer cells, read-out: CDK12 DC50), 29 nM; on CDK12 (MV4-11, leukemia cells, read-out: CDK12 DC50), 30 nM; at CDK13 [5] (DC50 classes, cell line not given, read-out: CDK13 degradation Activity) it was less than 100 nM. The DC50 on CDK13 [5] (KASUMI-1, leukemia cells, read-out: CDK13 DC50) was determined as 17 nM; at CDK13 [5] (MDA-MB-231, breast cancer cells, read-out: CDK13 DC50), 18 nM; on CDK13 [5] (MV4-11, leukemia cells, read-out: CDK13 DC50), 21 nM; at CDK13 [6], 24 nM. In addition, on CDK12 (FIGS. 2-9), the “degradation of CDK12” value is “has the strongest degradation effect”. Moreover, the half-life in data set [1], in data set [2], in data set [3] and in data set [4] was more than 45 min each time. Also, at CDK13 [5] (FIGS. 2-9), the “degradation of CDK13” value is reported as “has the strongest degradation effect”.
